According to US20120022048A1, “Anti-proliferative substituted pyrazolo[3,4-d]pyrimidines derivatives (SPP) to inhibit immune activation, virus replication and tumor growth” (priority 2010, published 2012):
Entries after “also recorded” stand apart in the source; their conditions may differ. Like-named read-outs stand apart in the source and are kept apart here.

Experiments:
[1] = tested on: primary human CD4 T-lymphocytes; experiment: Cell hyperproliferation in primary T cells (CFSE staining, mitotic index); type: cell-based; settings: for anti-proliferative activity (in words) / mitotic index %: SPPs 10 μM, Imatinib 10 μM; for anti-proliferative activity (in words): compared with HU 100 μM, HU+ddI or untreated control; for Anti-proliferative capacity: class symbol, Table 6; for decrease/inhibition of cell proliferation compared to not treated control: SPPs and Imatinib 10 μM; for decrease/inhibition of cell proliferation compared to not treated control / mitotic index %: HU 100 μM; for mitotic index %: % of not treated control (100%), day 10
In short: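 Primary human CD4 T cells were activated with PHA (5 μg/ml) on day 5, and IL-2 (20 U/ml) was added on day 7. Compounds were tested at 10 μM and cells harvested on day 10. Proliferation was measured by CFSE dilution as a normalized mitotic index, and apoptosis by Annexin V/7-AAD staining on day 10.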

[2] = tested on: primary human CD4 T-lymphocytes; experiment: Apoptosis in primary CD4 T cells (Annexin V and 7-AAD staining); type: cell-based; settings: for apoptotic effect (in words) / apoptosis %: SPPs 10 μM; for apoptotic effect (in words): compared with HU 100 μM, HU+ddI or untreated control; for apoptosis %: total apoptotic events compared to untreated control, day 10, Imatinib 10 μM, HU 100 μM, ddI 2 μM
In short: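 Resting primary human CD4 T cells from healthy donors were PHA-activated (5 μg/ml) at day 5, with IL-2 (20 U/ml) added at day 7. Compounds were tested at 10 μM. At day 10, Annexin V/7-AAD staining gave percentage of total apoptotic events.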

[3] = tested on: HIV-1 NL 4.3; experiment: HIV-1 replication in quiescent CD4 T cells (p24 Ag ELISA); type: cell-based; settings: for inhibition at 10 µM: Human immunodeficiency virus 1, CD4+ T, read-out: reduction of HIV-1 p24 production / inhibition of HIV replication compared to untreated control; for anti-HIV activity in quiescent cells (in words) / HIV quiescent cells (percentage p24 compared to the untreated control): SPPs 10 μM; for anti-HIV activity in quiescent cells (in words): compared with HU 100 μM, HU+ddI or untreated control; for Antiviral activity in quiescent cells: class symbol, Table 6; for HIV quiescent cells (percentage p24 compared to the untreated control): quiescent CD4 T cells, day 10, HU 100 μM, HU 100 μM+ddI 2 μM
In short: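 Resting human CD4 T cells from healthy donors were infected, then stimulated with PHA 5 μg/ml on day 5 and IL-2 20 U/ml on day 7. Compounds were tested at 10 μM, with HU 100 μM ± ddI 2 μM as comparators. p24 was measured by ELISA on day 10 and expressed as % of untreated control.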

[4] = tested on: HIV-1 NL 4.3; experiment: HIV-1 replication in activated T cells (PBMC, p24 Ag ELISA); type: cell-based; settings: for inhibition at 10 µM: Human immunodeficiency virus 1, T-cell, read-out: inhibition of p24 production / HIV replication compared to untreated control; for anti-HIV activity in activated T cells (in words): SPPs 10 μM, compared with HU 100 μM, HU+ddI or untreated control; for Antiviral activity in activated cells: class symbol, Table 6; for HIV activated cells (% p24 compared to not treated control): 7 days, SPPs and Imatinib 10 μM, HU 100 μM, ddI 2 μM
In short: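 PBMC from healthy donors, stimulated two days with PHA 5 μg/ml, were infected with HIV-1 NL 4.3 and given IL-2 (20 U/ml) and compound at 10^5 cells per well. After 7 days at 37° C, supernatant p24 Ag was measured by ELISA against an untreated control.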

[5] = tested on: Human peripheral blood mononuclear cells (PBMC); settings: 7 days
[6] = % of not treated control (100%), SPPs 10 μM, Imatinib 10 μM, HU 100 μM, HU 100 μM+ddI 2 μM

Compound | anti-proliferative activity (in words) [1] | Anti-proliferative capacity [1] | apoptotic effect (in words) [2] | inhibition at 10 µM ([3]; quiescent cells, 10 μM) | anti-HIV activity in quiescent cells (in words) [3] | Antiviral activity in quiescent cells [3] | inhibition at 10 µM ([4]; activated T cells, 10 μM) | anti-HIV activity in activated T cells (in words) [4] | Antiviral activity in activated cells [4] | % viability ([5]; human, 10 μM) | decrease/inhibition of cell proliferation compared to not treated control [1] | mitotic index % [1] | apoptosis % [2] | HIV quiescent cells (percentage p24 compared to the untreated control) [3] | HIV activated cells (% p24 compared to not treated control) ([4]; activated T cells) | % viability [5, 6] | further results
CSc1nc(NCc2ccccc2)c2cnn(CC(Cl)c3ccccc3)c2n1 (stereo not shown) [VS1-003, 1-(2-chloro-2-phenylethyl)-6-(methylthio)-N-benzyl-1H-pyrazolo[3,4-d]pyrimidin-4-amine] | slightly less potent; also recorded: little inferior anti-proliferative capacity compared to HU; also recorded: somewhat less than that of VS1-002 | ++ (good (++, 50 to 70% activity)) | no effect on apoptosis; also recorded: did not affect the percentage of apoptotic events; also recorded: did not induce apoptosis | 95% | about as effective as VS1-002 | +++ (excellent (+++, greater than 70% activity)) | 76% | slightly less potent; also recorded: slightly inferior anti-HIV capacity; also recorded: about as effective as VS1-002 | +++ (excellent (+++, greater than 70% activity)) | 103.4 ± 4.0% |  |  |  |  |  |  | 
CSc1nc(NCCc2ccccc2)c2cnn(CC(Cl)c3ccccc3)c2n1 (stereo not shown) [VS1-004, 1-(2-chloro-2-phenylethyl)-6-(methylthio)-N-(2-phenylethyl)-1H-pyrazolo[3,4-d]pyrimidin-4-amine] | as anti-proliferative as 100 μM HU; also recorded: as effective as HU+ddI; also recorded: as effective as 100 μM HU | +++ (excellent (+++, greater than 70% activity)) | only induced a small apoptotic effect; also recorded: same level; also recorded: slight increase | 93% | good antiviral potency; also recorded: as effective as HU+ddI | +++ (excellent (+++, greater than 70% activity)) | 88% | good antiviral potency; also recorded: as effective as HU+ddI | +++ (excellent (+++, greater than 70% activity)) | 74.9 ± 13.8% |  |  |  |  |  |  | 
CSc1nc(NCCc2ccccc2)c2cnn(C=Cc3ccccc3)c2n1 [VS1-005, 1-styryl-6-methylthio-N-(2-phenylethyl)-1H-pyrazolo[3,4-d]pyrimidin-4-amine] | slightly lower compared to HU |  | did not induce apoptosis; also recorded: no effect on apoptosis; also recorded: did not affect the percentage of apoptotic events | 97% | strong anti-HIV activity; also recorded: same antiviral power |  |  | active also against HIV in activated T cells; also recorded: same antiviral power; also recorded: same antiviral activity |  | 84.3 ± 22.7% | 27% |  |  |  |  |  | anti-proliferative capacity less than HU+ddI ([1]; 10 μM, spider graph FIG. 3): 50%
ClC(Cn1ncc2c(NCc3ccccc3)ncnc21)c1ccccc1 (stereo not shown) [VS1-010, N-benzyl-1-(2-chloro-2-phenylethyl)-1H-pyrazolo[3,4-d]pyrimidin-4-amine] | increased anti-proliferative capacity compared to 100 μM HU |  | induced apoptosis; also recorded: more proapoptotic; also recorded: slight increase | 89% | active as antivirals; also recorded: good activity against HIV |  | 88% | active as antivirals; also recorded: good activity against HIV |  | 40.9 ± 35.8% | 99% |  |  |  |  |  | more anti-proliferative than HU+ddI ([1]; 10 μM, spider graph FIG. 3): 20%
CSc1nc(Nc2cccc(Cl)c2)c2cnn(CC(Cl)c3ccccc3)c2n1 (stereo not shown) [VS1-011, N-(3-chlorophenyl)-1-(2-chloro-2-phenylethyl)-6-(methylthio)-1H-pyrazolo[3,4-d]pyrimidin-4-amine] | increased anti-proliferative capacity compared to 100 μM HU |  | induced apoptosis; also recorded: extremely proapoptotic; also recorded: strongly proapoptotic | 80% | active as antivirals |  | 85% | active as antivirals |  | 70.4 ± 16.9% | 100% |  |  |  |  |  | increase in apoptotic events compared to the control ([2]; 10 μM, 10 days): 182%
OCCNc1nc(NCc2ccccc2)c2cnn(C=Cc3ccccc3)c2n1 [VS1-015] |  |  |  |  |  |  |  | better anti-HIV activity than HU |  |  |  | 55.4 ± 6.0% | 63.9 ± 9.2% | 7.6 ± 2.8% | 15.3 ± 2.4% | 82.0 ± 5.8% | 
Fc1ccc(CNc2ncnc3c2cnn3CC(Cl)c2ccc(Cl)cc2)cc1 (stereo not shown) [VS1-029, 1-[2-chloro-2-(4-chlorophenyl)ethyl]-N-(4-fluorobenzyl)-1H-pyrazolo[3,4-d]pyrimidin-4-amine] | good anti-proliferative capacity (superior to 100 μM HU) | +++ (excellent (+++, greater than 70% activity)) | no more apoptotic than HU; also recorded: slight increase |  | good anti-HIV activity | +++ (excellent (+++, greater than 70% activity)) |  | good anti-HIV activity | +++ (excellent (+++, greater than 70% activity)) | 96.8 ± 4.5% | 95% |  |  |  |  |  | more anti-proliferative than HU+ddI ([1]; 10 μM, spider graph FIG. 3): about 20%; inhibition at 10 µM [3]: 94%; inhibition at 10 µM [4]: 88%
CCN(CC)c1nc(SC)nc2c1cnn2CC(Cl)c1ccccc1 (stereo not shown) [VS1-032] | comparable or even greater than HU |  |  |  |  |  |  |  |  |  |  | 22.0 ± 14.5% | 131.8 ± 58.6% | 19.7 ± 7.2% | 59.3 ± 8.1% | 99.1 ± 3.7% | 
CCOCCNc1nc(SC)nc2c1cnn2CC(Cl)c1ccccc1 (stereo not shown) [VS1-033] | comparable or even greater than HU |  |  |  |  |  |  |  |  |  |  | 15.4 ± 6.7% | 138.6 ± 49.7% | 15.0 ± 3.0% | 57.1 ± 10.2% | 108.1 ± 3.5% | 
